Numbered stars: 1 amine (or outer) side, 2 acyl side, 3 side chain; on linkers, the order of the positions; unused ones are H or OH. Bridge positions count the residues as written; N and C are the ends. Square brackets hold non-standard residues; d marks the D form. Side chains are listed from the residue outwards. Peptide text beside a SMILES is read from it. * marks the point of attachment. C20 diacid = O=C(O)CCCCCCCCCCCCCCCCCCC(=O)*; γGlu = O=C(O)[C@H](CCC(=O)[*:2])N[*:1]; Hyp = O=C(O)[C@@H]1C[C@@H](O)CN1; AEEA = NCCOCCOCC(=O)O
What was measured:
[1] = biological target: hAM1 receptor (Homo sapiens, UniProt O60895+Q16602); assay: cAMP assay for in vitro receptor activation, hAM1-R; type: cell-based; conditions: cAMP assay, hAM1 receptor; read-out: hAM1R EC50
Procedure, shortened: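 Read-out is intracellular cAMP as a measure of receptor activation. Cells stably overexpressing hAM1 were subcloned to a monoclonal line, then thawed and seeded at 8000 cells/well in DPBS with 0.05% casein and the phosphodiesterase inhibitor IBMX at 0.5 mM.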

[2] = biological target: T1, hAMY3 receptor (Homo sapiens, UniProt O60896+P30988); assay: cAMP assay for in vitro receptor activation, hAMY3-R; type: cell-based; conditions: cAMP assay, hAMY3 receptor; read-out: hAMY3R EC50
T1 sequence (P30988 25-474): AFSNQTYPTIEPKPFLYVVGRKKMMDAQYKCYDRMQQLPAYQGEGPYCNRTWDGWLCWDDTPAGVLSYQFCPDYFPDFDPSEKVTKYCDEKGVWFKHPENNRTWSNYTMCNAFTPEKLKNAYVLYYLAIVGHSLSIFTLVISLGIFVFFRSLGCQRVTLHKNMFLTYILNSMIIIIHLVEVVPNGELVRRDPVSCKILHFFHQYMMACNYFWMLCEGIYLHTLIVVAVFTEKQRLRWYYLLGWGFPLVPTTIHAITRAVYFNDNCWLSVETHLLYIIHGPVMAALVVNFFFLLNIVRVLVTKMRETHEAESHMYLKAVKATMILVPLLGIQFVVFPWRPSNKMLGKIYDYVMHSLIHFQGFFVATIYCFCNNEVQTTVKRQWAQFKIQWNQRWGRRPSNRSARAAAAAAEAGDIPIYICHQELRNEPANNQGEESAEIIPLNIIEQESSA
T1 sequence (O60896 24-148 partner): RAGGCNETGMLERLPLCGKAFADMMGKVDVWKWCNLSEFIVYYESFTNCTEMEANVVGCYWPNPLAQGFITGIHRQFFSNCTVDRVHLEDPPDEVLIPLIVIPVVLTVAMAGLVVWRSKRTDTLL
Procedure, shortened: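 Monoclonal cell line stably overexpressing human AMY3 receptor, 2000 cells/well in DPBS with 0.05% casein and 0.5 mM IBMX. Stimulated 30 min at room temperature with graded compound doses, human amylin as positive control. cAMP accumulation read by TR-FRET after one hour.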

Sequence of hAM1 receptor (Q16602 23-461): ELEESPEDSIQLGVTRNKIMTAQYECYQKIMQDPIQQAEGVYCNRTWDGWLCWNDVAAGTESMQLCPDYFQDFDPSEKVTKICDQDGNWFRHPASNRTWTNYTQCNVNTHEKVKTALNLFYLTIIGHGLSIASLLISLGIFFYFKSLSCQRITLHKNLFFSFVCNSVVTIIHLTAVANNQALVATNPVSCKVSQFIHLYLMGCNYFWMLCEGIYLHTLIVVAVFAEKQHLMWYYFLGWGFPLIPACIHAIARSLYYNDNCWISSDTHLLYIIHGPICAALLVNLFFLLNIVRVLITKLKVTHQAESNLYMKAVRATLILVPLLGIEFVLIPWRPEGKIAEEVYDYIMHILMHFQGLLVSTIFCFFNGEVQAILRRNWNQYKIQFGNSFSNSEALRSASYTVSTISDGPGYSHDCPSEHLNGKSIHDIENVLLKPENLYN
Sequence of hAM1 receptor (O60895 43-175 partner): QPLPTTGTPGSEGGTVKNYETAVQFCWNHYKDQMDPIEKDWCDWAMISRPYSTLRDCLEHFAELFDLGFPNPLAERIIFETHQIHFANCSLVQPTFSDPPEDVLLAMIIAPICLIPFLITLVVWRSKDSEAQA

Question: Which EC50 [1] does the source give for `CC[C@H](C)[C@H](NC(=O)[C@H](CCC(N)=O)NC(=O)[C@H](CCC(=O)O)NC(=O)[C@H](C)NC(=O)[C@H](CC(C)C)NC(=O)[C@H](CCCNC(=N)N)NC(=O)[C@H](CCC(N)=O)NC(=O)[C@@H](NC(=O)[C@@H](NC(=O)[C@@H]1CSSC[C@H](NC(=O)[C@H](CCCCN)NC(=O)CC[C@H](NC(=O)CCCCCCCCCCCCCCCCCCC(=O)O)C(=O)O)C(=O)N[C@@H](CC(N)=O)C(=O)N[C@@H]([C@@H](C)O)C(=O)N[C@@H](C)C(=O)N[C@@H]([C@@H](C)O)C(=O)N1)[C@@H](C)O)C(C)C)C(=O)N[C@@H](Cc1ccc(O)cc1)C(=O)N[C@@H](CCC(N)=O)C(=O)N[C@@H](Cc1ccccc1)C(=O)N[C@H](C(=O)N[C@@H](CC(=O)O)C(=O)N[C@@H](CCCCN)C(=O)N[C@@H](CC(=O)O)C(=O)N[C@@H](CCCCN)C(=O)N[C@@H](CC(=O)O)C(=O)N[C@@H](CC(N)=O)C(=O)N[C@H](C(=O)N[C@@H](C)C(=O)N1CCC[C@H]1C(=O)N1CCC[C@H]1C(=O)N[C@H](C(=O)N[C@@H](C)C(=O)N[C@H](C(=O)NCC(=O)N[C@@H](CO)C(=O)N[C@@H](CC(N)=O)C(=O)NCC(=O)N1C[C@H](O)C[C@H]1C(N)=O)C(C)C)[C@@H](C)O)C(C)C)[C@@H](C)O` [compound 63] ({C20 diacid-γGlu}-KCNTATCTVQRLAEQIYQFTDKDKDNVAPPTAVGSNG[Hyp]-NH2; disulfide 2-7) here?
Answer: The EC50 was > 5000 nM.

Question: What about the EC50 [2] of the same compound?
Answer: The EC50 was 0.012 nM.

Question: How did the EC50 [1] turn out when `CC[C@H](C)[C@H](NC(=O)[C@H](CCC(N)=O)NC(=O)[C@H](CCC(=O)O)NC(=O)[C@H](C)NC(=O)[C@H](CC(C)C)NC(=O)[C@H](CCCNC(=N)N)NC(=O)[C@H](CCC(N)=O)NC(=O)[C@@H](NC(=O)[C@@H](NC(=O)[C@@H]1CSSC[C@H](NC(=O)[C@@H](N)CCCCN)C(=O)N[C@@H](CC(N)=O)C(=O)N[C@@H]([C@@H](C)O)C(=O)N[C@@H](C)C(=O)N[C@@H]([C@@H](C)O)C(=O)N1)[C@@H](C)O)C(C)C)C(=O)N[C@@H](Cc1ccc(O)cc1)C(=O)N[C@@H](CCC(N)=O)C(=O)N[C@@H](Cc1ccccc1)C(=O)N[C@H](C(=O)N[C@@H](CC(=O)O)C(=O)N[C@@H](CCCCN)C(=O)N[C@@H](CC(=O)O)C(=O)N[C@@H](CCCCN)C(=O)N[C@@H](CC(=O)O)C(=O)N[C@@H](CC(N)=O)C(=O)N[C@H](C(=O)N[C@@H](CO)C(=O)N1CCC[C@H]1C(=O)N1CCC[C@H]1C(=O)N[C@H](C(=O)N[C@@H](CC(N)=O)C(=O)N[C@H](C(=O)NCC(=O)N[C@@H](CO)C(=O)N[C@@H](CC(N)=O)C(=O)NCC(=O)N1C[C@H](O)C[C@H]1C(N)=O)C(C)C)[C@@H](C)O)C(C)C)[C@@H](C)O` [compound 66] (H-KCNTATCTVQRLAEQIYQFTDKDKDNVSPPTNVGSNG[Hyp]-NH2; disulfide 2-7) was run?
Answer: The EC50 was > 5000 nM.

Question: And the EC50 [2]?
Answer: The EC50 was 0.012 nM.

Question: With `CC[C@H](C)[C@H](NC(=O)[C@H](CCC(N)=O)NC(=O)[C@H](Cc1c[nH]cn1)NC(=O)[C@H](C)NC(=O)[C@H](CC(C)C)NC(=O)[C@H](CCCNC(=N)N)NC(=O)[C@H](CCC(N)=O)NC(=O)[C@@H](NC(=O)[C@@H](NC(=O)[C@@H]1CSSC[C@H](NC(=O)[C@H](CCCCN)NC(=O)CC[C@H](NC(=O)CCCCCCCCCCCCCCCCCCC(=O)O)C(=O)O)C(=O)N[C@@H](CC(N)=O)C(=O)N[C@@H](Cc2ccccc2)C(=O)N[C@@H](C)C(=O)N[C@@H]([C@@H](C)O)C(=O)N1)[C@@H](C)O)C(C)C)C(=O)N[C@@H](Cc1ccc(O)cc1)C(=O)N[C@@H](CCC(N)=O)C(=O)N[C@@H](Cc1ccccc1)C(=O)N[C@H](C(=O)N[C@@H](CC(=O)O)C(=O)N[C@@H](CCCCN)C(=O)N[C@@H](CC(=O)O)C(=O)N[C@@H](CCCCN)C(=O)N[C@@H](CC(=O)O)C(=O)N[C@@H](CC(N)=O)C(=O)N[C@H](C(=O)N[C@@H](C)C(=O)N1CCC[C@H]1C(=O)N[C@@H](CCCNC(=N)N)C(=O)N[C@H](C(=O)N[C@@H](CCC(=O)O)C(=O)N[C@H](C(=O)NCC(=O)N[C@@H](CO)C(=O)N[C@@H](CC(N)=O)C(=O)NCC(=O)N1C[C@H](O)C[C@H]1C(N)=O)C(C)C)[C@@H](C)O)C(C)C)[C@@H](C)O` [compound 67] ({C20 diacid-γGlu}-KCNFATCTVQRLAHQIYQFTDKDKDNVAPRTEVGSNG[Hyp]-NH2; disulfide 2-7) as the compound, how does the EC50 [1] read?
Answer: Its EC50 is 116 nM.

Question: What about the EC50 [2] of the same compound?
Answer: Its EC50 is 0.013 nM.

Question: `CC[C@H](C)[C@H](NC(=O)[C@H](CCC(N)=O)NC(=O)[C@H](Cc1c[nH]cn1)NC(=O)[C@H](C)NC(=O)[C@H](CC(C)C)NC(=O)[C@H](CCCNC(=N)N)NC(=O)[C@H](CCC(N)=O)NC(=O)[C@@H](NC(=O)[C@@H](NC(=O)[C@@H]1CSSC[C@H](NC(=O)[C@H](CCCCN)NC(=O)CC[C@H](NC(=O)CCCCCCCCCCCCCCCCCCC(=O)O)C(=O)O)C(=O)N[C@@H](CC(N)=O)C(=O)N[C@@H]([C@@H](C)O)C(=O)N[C@@H](C)C(=O)N[C@@H]([C@@H](C)O)C(=O)N1)[C@@H](C)O)C(C)C)C(=O)N[C@@H](C)C(=O)N[C@@H](CCC(N)=O)C(=O)N[C@@H](Cc1ccc(O)cc1)C(=O)N[C@H](C(=O)N[C@@H](CC(=O)O)C(=O)N[C@@H](CCCCN)C(=O)N[C@@H](CC(=O)O)C(=O)N[C@@H](CCCCN)C(=O)N[C@@H](CC(=O)O)C(=O)N[C@@H](CC(N)=O)C(=O)N[C@H](C(=O)N[C@@H](C)C(=O)N1CCC[C@H]1C(=O)N1CCC[C@H]1C(=O)N[C@H](C(=O)N[C@@H](CC(N)=O)C(=O)N[C@H](C(=O)NCC(=O)N[C@@H](CO)C(=O)N[C@@H](CC(N)=O)C(=O)NCC(=O)N1C[C@H](O)C[C@H]1C(N)=O)C(C)C)[C@@H](C)O)C(C)C)[C@@H](C)O` [compound 71] ({C20 diacid-γGlu}-KCNTATCTVQRLAHQIAQYTDKDKDNVAPPTNVGSNG[Hyp]-NH2; disulfide 2-7) was tested. Which EC50 [1] did it give?
Answer: Its EC50 is > 5000 nM.

Question: What about the EC50 [2] of the same compound?
Answer: The EC50 was 0.013 nM.

Question: What does the source list for `CC[C@H](C)[C@H](NC(=O)[C@H](CCC(N)=O)NC(=O)[C@H](CCC(=O)O)NC(=O)[C@H](C)NC(=O)[C@H](CC(C)C)NC(=O)[C@H](CCCNC(=N)N)NC(=O)[C@H](CCC(N)=O)NC(=O)[C@@H](NC(=O)[C@@H](NC(=O)[C@@H]1CSSC[C@H](NC(=O)[C@H](CCCCN)NC(=O)CC[C@H](NC(=O)CCCCCCCCCCCCCCCCCCC(=O)O)C(=O)O)C(=O)N[C@@H](CC(N)=O)C(=O)N[C@@H]([C@@H](C)O)C(=O)N[C@@H](C)C(=O)N[C@@H]([C@@H](C)O)C(=O)N1)[C@@H](C)O)C(C)C)C(=O)N[C@@H](Cc1ccc(O)cc1)C(=O)N[C@@H](CCC(N)=O)C(=O)N[C@@H](Cc1ccccc1)C(=O)N[C@H](C(=O)N[C@@H](CC(=O)O)C(=O)N[C@@H](CCCCN)C(=O)N[C@@H](CC(=O)O)C(=O)N[C@@H](CCCCN)C(=O)N[C@@H](CC(=O)O)C(=O)N[C@@H](CC(N)=O)C(=O)N[C@H](C(=O)N[C@@H](C)C(=O)N1CCC[C@H]1C(=O)N1CCC[C@H]1C(=O)N[C@H](C(=O)N[C@@H](CCC(N)=O)C(=O)N[C@H](C(=O)NCC(=O)N[C@@H](CO)C(=O)N[C@@H](CC(N)=O)C(=O)NCC(=O)N1C[C@H](O)C[C@H]1C(N)=O)C(C)C)[C@@H](C)O)C(C)C)[C@@H](C)O` [compound 73] ({C20 diacid-γGlu}-KCNTATCTVQRLAEQIYQFTDKDKDNVAPPTQVGSNG[Hyp]-NH2; disulfide 2-7)?
Answer: EC50 [1]: > 5000 nM; EC50 [2]: 0.013 nM

Question: What does the source list for `CC[C@H](C)[C@H](NC(=O)[C@H](CCC(N)=O)NC(=O)[C@H](CCCCNC(=O)COCCOCCNC(=O)COCCOCCNC(=O)CC[C@H](NC(=O)CCCCCCCCCCCCCCCCCCC(=O)O)C(=O)O)NC(=O)[C@H](C)NC(=O)[C@H](CC(C)C)NC(=O)[C@H](CCCNC(=N)N)NC(=O)[C@H](CCC(N)=O)NC(=O)[C@@H](NC(=O)[C@@H](NC(=O)[C@@H]1CSSC[C@H](NC(=O)[C@@H](N)CCCCN)C(=O)N[C@@H](CC(N)=O)C(=O)N[C@@H]([C@@H](C)O)C(=O)N[C@@H](C)C(=O)N[C@@H]([C@@H](C)O)C(=O)N1)[C@@H](C)O)C(C)C)C(=O)N[C@@H](Cc1ccc(O)cc1)C(=O)N[C@@H](CCC(N)=O)C(=O)N[C@@H](Cc1ccccc1)C(=O)N[C@H](C(=O)N[C@@H](CC(=O)O)C(=O)N[C@@H](CCCCN)C(=O)N[C@@H](CC(=O)O)C(=O)N[C@@H](CCCCN)C(=O)N[C@@H](CC(=O)O)C(=O)N[C@@H](CC(N)=O)C(=O)N[C@H](C(=O)N[C@@H](C)C(=O)N1CCC[C@H]1C(=O)N1CCC[C@H]1C(=O)N[C@H](C(=O)N[C@@H](CC(N)=O)C(=O)N[C@H](C(=O)NCC(=O)N[C@@H](CO)C(=O)N[C@@H](CC(N)=O)C(=O)NCC(=O)N1C[C@H](O)C[C@H]1C(N)=O)C(C)C)[C@@H](C)O)C(C)C)[C@@H](C)O` [compound 74] (H-KCNTATCTVQRLAK([AEEA-AEEA-γGlu-C20 diacid])QIYQFTDKDKDNVAPPTNVGSNG[Hyp]-NH2; disulfide 2-7; N-terminus assumed)?
Answer: EC50 [1]: > 5000 nM; EC50 [2]: 0.013 nM

Source: patent publication US12139520B2 (priority 2020, dated 2024)
